# In ChEMBL document CHEMBL1146881, “Improved replicon cellular activity of non-nucleoside allosteric inhibitors of HCV NS5B polymerase: from benzimidazole to indole scaffolds” (Bioorg Med Chem Lett, 2006):
# Calls of active or inactive are those of the source. The rule behind the calls is not given here.
# Tests used:
# [1] = biological target: RNA-directed RNA polymerase (Hepacivirus hominis, UniProt O39930); test: Inhibition of HCV 1b NS5B delta21 RNA dependent RNA polymerase by SPA; parameters: species or system Hepatitis C virus subtype 1b
# Sequence of RNA-directed RNA polymerase (O39930 whole entry): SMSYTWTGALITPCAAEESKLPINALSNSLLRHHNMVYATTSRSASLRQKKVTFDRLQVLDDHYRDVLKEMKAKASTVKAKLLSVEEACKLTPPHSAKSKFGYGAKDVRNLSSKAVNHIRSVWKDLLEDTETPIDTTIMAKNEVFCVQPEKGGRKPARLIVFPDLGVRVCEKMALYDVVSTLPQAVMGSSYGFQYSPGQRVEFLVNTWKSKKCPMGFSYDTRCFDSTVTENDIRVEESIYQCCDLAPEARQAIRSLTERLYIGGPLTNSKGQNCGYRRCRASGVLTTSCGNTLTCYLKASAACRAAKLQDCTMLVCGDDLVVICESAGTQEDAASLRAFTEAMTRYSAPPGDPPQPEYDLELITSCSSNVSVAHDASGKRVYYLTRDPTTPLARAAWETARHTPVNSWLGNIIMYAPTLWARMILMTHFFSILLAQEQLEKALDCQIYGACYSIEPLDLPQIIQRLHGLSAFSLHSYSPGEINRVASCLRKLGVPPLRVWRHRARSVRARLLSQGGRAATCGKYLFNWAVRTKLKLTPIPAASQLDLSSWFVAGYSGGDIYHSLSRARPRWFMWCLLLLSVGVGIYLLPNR
# [2] = tested on: Hepatitis C virus; test: Inhibition of HCV RNA replication by replicon assay; type: functional, organism-based, Hepacivirus hominis; settings: for Activity: Hepacivirus hominis
# [3] = biological target: Genome polyprotein (Human poliovirus 1 Mahoney, UniProt P03300); test: Inhibition of poliovirus RNA dependent RNA polymerase; parameters: species or system Enterovirus C
# Sequence of Genome polyprotein (P03300 1749-2209 limits assumed): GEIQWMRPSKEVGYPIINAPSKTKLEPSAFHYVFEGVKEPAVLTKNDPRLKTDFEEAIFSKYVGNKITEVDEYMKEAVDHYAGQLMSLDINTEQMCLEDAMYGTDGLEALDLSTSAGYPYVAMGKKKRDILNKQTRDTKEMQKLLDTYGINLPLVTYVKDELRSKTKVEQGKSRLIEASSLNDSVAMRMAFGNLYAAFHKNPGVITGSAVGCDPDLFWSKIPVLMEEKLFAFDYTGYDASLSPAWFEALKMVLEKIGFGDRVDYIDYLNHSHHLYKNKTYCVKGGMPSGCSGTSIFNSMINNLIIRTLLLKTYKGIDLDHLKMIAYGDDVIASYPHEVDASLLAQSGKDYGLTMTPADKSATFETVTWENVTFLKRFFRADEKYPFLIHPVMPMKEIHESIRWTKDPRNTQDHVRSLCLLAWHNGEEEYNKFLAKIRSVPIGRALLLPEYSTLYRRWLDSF
Structure (SMILES),IC50 [1] [µM],EC50 [2] [µM],IC50 [3] [µM],Activity [2]
O=C(O)c1ccc2c(C3CCCCC3)c(-c3ccoc3)[nH]c2c1,0.03,6.7,> 125,–
O=C(O)/C=C/c1cc(C2CCCCC2)c(-c2ccccn2)[nH]1,> 50,–,–,–
O=C(O)/C=C/c1cc(-c2ccccn2)n(C2CCCCC2)n1,> 100,–,–,–
O=C(O)c1ccc2c(c1)nc(-c1ccccn1)n2C1CCCCC1,2.7,–,–,inactive
Cn1c(-c2ccoc2)c(C2CCCCC2)c2ccc(C(=O)O)cc21,0.016,4.2,125,–
Cn1c(-c2ccoc2)c(C2CCCC2)c2ccc(C(=O)O)c(O)c21,0.075,19,–,–
O=C(O)c1ccc2c(c1)nc(-c1ccccc1)n2C1CCCCC1,3.1,–,–,inactive
O=C(O)c1ccc2c(c1)nc(-c1ccoc1)n2C1CCCCC1,1.1,–,–,inactive
O=C(O)c1ccc2c(C3CCCC3)c(-c3ccoc3)oc2c1,0.081,21,–,–
O=C(O)c1ccc2c(c1)S(=O)(=O)C(c1ccoc1)=C2C1CCCC1,> 100,–,–,–
Cn1c(-c2ccccc2)c(C2CCCCC2)c2ccc(C(=O)O)nc21,0.08,2.2,–,–
Cn1c(-c2ccoc2)c(C2CCCCC2)c2ccc(C(=O)O)nc21,0.051,–,–,–
Cn1c(-c2ccccc2)c(C2CCCCC2)c2ccc(C(=O)O)cc21,0.03,6.6,–,–
O=C(O)c1ccc2c(C3CCCCC3)c(-c3ccccn3)[nH]c2c1,0.23,> 10,–,–
Cc1c(-c2ccoc2)n(C2CCCCC2)c2ccc(C(=O)O)cc12,0.044,> 10,–,–
COC(=O)c1c(C(=O)O)ccc2c(C3CCCC3)c(-c3ccoc3)n(C)c12,0.48,22,–,–
Cc1c(-c2ccccn2)n(C2CCCCC2)c2ccc(C(=O)O)cc12,0.82,> 10,–,–
Cc1c(-c2ccccc2)n(C2CCCCC2)c2ccc(C(=O)O)cc12,0.18,> 10,–,–
O=C(O)c1ccc2c(C3CCCC3)c(-c3ccoc3)sc2c1,0.078,22,–,–
O=C(O)c1ccc2c(C3CCCC3)c(-c3ccoc3)[nH]c2c1,0.025,6.6,–,–
COc1c(C(=O)O)ccc2c(C3CCCC3)c(-c3ccoc3)n(C)c12,0.34,40,–,–
Cn1c(-c2ccccn2)c(C2CCCCC2)c2ccc(C(=O)O)cc21,0.09,3.9,–,–
O=C(O)c1ccc2c(c1)nc(-c1ccoc1)n2C1CCCC1,2.2,–,–,inactive
Cn1c(-c2ccoc2)c(C2CCCC2)c2ccc(C(=O)O)c(Cl)c21,0.29,37,–,–
Cn1c(-c2ccoc2)c(C2CCCC2)c2ccc(C(=O)O)cc21,0.021,6.6,–,–
Cn1c(-c2ccoc2)c(C2CCCC2)c2ccc(C(=O)O)c(C(=O)O)c21,5.3,–,–,–
O=C(O)c1ccc2c(C3CCCCC3)c(-c3ccccc3)[nH]c2c1,0.05,> 10,–,–
